Publication PMC6199744, “Development of Chemical Proteomics for the Folateome and Analysis of the Kinetoplastid Folateome” (ACS Infectious Diseases, 2018)
Like-named read-outs stand apart in the source and are kept apart here.

How the values were obtained:
Format in all cases: binding
[1] = target: T1, HeLa cell extract proteins (Homo sapiens, UniProt Q13263)
T1 construct: endogenous in cells; host or cells: HeLa cell extract

[2] = target: T2, HeLa cell extract proteins (Homo sapiens, UniProt P52597)
T2 construct: endogenous in cells; host or cells: HeLa cell extract
T2 sequence (P52597 1-415): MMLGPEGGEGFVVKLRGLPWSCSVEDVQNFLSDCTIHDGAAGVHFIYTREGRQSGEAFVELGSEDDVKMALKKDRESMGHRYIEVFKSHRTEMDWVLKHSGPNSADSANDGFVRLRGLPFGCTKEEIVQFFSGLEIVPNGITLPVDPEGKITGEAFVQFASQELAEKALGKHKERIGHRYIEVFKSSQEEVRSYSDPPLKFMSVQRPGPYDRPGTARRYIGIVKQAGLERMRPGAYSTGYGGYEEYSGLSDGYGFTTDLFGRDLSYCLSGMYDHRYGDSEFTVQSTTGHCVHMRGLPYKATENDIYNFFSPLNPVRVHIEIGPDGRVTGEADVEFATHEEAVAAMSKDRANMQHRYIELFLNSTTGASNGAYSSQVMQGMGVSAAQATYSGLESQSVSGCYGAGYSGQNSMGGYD

[3] = target: T3, HeLa cell extract proteins (Homo sapiens, UniProt P06753)
T3 construct: endogenous in cells; host or cells: HeLa cell extract

[4] = target: T4, HeLa cell extract proteins (Homo sapiens, UniProt P35579)
T4 construct: endogenous in cells; host or cells: HeLa cell extract

[5] = target: T5, HeLa cell extract proteins (Homo sapiens, UniProt Q15365)
T5 construct: endogenous in cells; host or cells: HeLa cell extract

[6] = target: T6, HeLa cell extract proteins (Homo sapiens, UniProt Q8N5P1)
T6 construct: endogenous in cells; host or cells: HeLa cell extract
T6 sequence (Q8N5P1 1-291): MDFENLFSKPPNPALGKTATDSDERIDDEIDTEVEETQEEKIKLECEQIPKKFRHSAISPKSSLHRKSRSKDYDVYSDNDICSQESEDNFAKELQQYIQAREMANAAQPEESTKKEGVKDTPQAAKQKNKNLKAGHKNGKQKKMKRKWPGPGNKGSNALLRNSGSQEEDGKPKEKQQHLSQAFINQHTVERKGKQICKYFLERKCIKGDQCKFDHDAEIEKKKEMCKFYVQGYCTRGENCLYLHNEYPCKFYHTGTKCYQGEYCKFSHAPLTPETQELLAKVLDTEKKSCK

[7] = target: T7, HeLa cell extract proteins (Homo sapiens, UniProt P35270)
T7 construct: endogenous in cells; host or cells: HeLa cell extract

[8] = target: T8, HeLa cell extract proteins (Homo sapiens, UniProt P50454)
T8 construct: endogenous in cells; host or cells: HeLa cell extract
T8 sequence (P50454 19-418): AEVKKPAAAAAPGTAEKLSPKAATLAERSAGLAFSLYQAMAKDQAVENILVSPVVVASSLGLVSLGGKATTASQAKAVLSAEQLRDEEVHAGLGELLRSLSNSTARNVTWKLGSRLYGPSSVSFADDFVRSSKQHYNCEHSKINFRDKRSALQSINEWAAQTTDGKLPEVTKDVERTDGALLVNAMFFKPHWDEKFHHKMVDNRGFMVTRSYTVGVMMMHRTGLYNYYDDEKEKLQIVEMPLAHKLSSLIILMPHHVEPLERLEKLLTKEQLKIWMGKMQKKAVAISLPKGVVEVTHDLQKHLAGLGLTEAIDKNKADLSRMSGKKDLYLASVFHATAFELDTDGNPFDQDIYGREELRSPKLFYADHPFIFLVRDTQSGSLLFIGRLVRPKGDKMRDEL

[9] = target: T9, HeLa cell extract proteins (Homo sapiens, UniProt P78527)
T9 construct: endogenous in cells; host or cells: HeLa cell extract

[10] = target: T10, HeLa cell extract proteins (Homo sapiens, UniProt Q96EY1)
T10 construct: endogenous in cells; host or cells: HeLa cell extract
T10 sequence (Q96EY1 1-480): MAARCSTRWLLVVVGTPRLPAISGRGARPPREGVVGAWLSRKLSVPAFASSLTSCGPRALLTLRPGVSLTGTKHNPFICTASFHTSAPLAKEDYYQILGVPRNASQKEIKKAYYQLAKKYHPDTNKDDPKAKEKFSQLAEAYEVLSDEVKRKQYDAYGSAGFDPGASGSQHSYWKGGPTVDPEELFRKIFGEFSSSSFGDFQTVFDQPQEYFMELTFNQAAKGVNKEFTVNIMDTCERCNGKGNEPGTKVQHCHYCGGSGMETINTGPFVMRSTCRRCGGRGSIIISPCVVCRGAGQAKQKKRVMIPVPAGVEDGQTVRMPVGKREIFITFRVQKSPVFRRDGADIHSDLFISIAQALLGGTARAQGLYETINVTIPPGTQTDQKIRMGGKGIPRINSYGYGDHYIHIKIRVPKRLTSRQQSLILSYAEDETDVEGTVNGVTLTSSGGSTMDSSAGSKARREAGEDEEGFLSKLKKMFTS

[11] = target: T11, HeLa cell extract proteins (Homo sapiens, UniProt Q14258)
T11 construct: endogenous in cells; host or cells: HeLa cell extract

[12] = target: T12, HeLa cell extract proteins (Homo sapiens, UniProt Q92947)
T12 construct: endogenous in cells; host or cells: HeLa cell extract
T12 sequence (Q92947 45-438): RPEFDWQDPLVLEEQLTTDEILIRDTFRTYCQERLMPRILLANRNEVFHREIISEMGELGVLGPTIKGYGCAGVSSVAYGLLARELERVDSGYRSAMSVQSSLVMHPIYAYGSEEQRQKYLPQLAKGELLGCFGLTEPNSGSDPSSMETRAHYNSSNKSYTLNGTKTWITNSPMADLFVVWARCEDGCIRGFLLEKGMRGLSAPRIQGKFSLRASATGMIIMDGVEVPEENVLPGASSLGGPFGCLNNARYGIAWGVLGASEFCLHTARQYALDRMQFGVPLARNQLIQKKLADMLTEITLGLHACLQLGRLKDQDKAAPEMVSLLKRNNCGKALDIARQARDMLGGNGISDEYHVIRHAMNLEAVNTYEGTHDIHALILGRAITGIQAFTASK

[13] = target: T13, HeLa cell extract proteins (Homo sapiens, UniProt P11940)
T13 construct: endogenous in cells; host or cells: HeLa cell extract

[14] = target: T14, HeLa cell extract proteins (Homo sapiens, UniProt P14678)
T14 construct: endogenous in cells; host or cells: HeLa cell extract

[15] = target: T15, HeLa cell extract proteins (Homo sapiens, UniProt P30040)
T15 construct: endogenous in cells; host or cells: HeLa cell extract

T3 sequence (P06753 whole entry): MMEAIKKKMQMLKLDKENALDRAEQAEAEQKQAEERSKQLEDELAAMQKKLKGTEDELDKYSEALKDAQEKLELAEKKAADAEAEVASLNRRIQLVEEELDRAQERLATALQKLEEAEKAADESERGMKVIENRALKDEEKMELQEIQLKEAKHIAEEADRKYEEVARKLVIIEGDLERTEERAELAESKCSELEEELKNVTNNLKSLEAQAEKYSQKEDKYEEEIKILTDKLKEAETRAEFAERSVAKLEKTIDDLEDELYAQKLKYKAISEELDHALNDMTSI
T9 sequence (P78527 whole entry): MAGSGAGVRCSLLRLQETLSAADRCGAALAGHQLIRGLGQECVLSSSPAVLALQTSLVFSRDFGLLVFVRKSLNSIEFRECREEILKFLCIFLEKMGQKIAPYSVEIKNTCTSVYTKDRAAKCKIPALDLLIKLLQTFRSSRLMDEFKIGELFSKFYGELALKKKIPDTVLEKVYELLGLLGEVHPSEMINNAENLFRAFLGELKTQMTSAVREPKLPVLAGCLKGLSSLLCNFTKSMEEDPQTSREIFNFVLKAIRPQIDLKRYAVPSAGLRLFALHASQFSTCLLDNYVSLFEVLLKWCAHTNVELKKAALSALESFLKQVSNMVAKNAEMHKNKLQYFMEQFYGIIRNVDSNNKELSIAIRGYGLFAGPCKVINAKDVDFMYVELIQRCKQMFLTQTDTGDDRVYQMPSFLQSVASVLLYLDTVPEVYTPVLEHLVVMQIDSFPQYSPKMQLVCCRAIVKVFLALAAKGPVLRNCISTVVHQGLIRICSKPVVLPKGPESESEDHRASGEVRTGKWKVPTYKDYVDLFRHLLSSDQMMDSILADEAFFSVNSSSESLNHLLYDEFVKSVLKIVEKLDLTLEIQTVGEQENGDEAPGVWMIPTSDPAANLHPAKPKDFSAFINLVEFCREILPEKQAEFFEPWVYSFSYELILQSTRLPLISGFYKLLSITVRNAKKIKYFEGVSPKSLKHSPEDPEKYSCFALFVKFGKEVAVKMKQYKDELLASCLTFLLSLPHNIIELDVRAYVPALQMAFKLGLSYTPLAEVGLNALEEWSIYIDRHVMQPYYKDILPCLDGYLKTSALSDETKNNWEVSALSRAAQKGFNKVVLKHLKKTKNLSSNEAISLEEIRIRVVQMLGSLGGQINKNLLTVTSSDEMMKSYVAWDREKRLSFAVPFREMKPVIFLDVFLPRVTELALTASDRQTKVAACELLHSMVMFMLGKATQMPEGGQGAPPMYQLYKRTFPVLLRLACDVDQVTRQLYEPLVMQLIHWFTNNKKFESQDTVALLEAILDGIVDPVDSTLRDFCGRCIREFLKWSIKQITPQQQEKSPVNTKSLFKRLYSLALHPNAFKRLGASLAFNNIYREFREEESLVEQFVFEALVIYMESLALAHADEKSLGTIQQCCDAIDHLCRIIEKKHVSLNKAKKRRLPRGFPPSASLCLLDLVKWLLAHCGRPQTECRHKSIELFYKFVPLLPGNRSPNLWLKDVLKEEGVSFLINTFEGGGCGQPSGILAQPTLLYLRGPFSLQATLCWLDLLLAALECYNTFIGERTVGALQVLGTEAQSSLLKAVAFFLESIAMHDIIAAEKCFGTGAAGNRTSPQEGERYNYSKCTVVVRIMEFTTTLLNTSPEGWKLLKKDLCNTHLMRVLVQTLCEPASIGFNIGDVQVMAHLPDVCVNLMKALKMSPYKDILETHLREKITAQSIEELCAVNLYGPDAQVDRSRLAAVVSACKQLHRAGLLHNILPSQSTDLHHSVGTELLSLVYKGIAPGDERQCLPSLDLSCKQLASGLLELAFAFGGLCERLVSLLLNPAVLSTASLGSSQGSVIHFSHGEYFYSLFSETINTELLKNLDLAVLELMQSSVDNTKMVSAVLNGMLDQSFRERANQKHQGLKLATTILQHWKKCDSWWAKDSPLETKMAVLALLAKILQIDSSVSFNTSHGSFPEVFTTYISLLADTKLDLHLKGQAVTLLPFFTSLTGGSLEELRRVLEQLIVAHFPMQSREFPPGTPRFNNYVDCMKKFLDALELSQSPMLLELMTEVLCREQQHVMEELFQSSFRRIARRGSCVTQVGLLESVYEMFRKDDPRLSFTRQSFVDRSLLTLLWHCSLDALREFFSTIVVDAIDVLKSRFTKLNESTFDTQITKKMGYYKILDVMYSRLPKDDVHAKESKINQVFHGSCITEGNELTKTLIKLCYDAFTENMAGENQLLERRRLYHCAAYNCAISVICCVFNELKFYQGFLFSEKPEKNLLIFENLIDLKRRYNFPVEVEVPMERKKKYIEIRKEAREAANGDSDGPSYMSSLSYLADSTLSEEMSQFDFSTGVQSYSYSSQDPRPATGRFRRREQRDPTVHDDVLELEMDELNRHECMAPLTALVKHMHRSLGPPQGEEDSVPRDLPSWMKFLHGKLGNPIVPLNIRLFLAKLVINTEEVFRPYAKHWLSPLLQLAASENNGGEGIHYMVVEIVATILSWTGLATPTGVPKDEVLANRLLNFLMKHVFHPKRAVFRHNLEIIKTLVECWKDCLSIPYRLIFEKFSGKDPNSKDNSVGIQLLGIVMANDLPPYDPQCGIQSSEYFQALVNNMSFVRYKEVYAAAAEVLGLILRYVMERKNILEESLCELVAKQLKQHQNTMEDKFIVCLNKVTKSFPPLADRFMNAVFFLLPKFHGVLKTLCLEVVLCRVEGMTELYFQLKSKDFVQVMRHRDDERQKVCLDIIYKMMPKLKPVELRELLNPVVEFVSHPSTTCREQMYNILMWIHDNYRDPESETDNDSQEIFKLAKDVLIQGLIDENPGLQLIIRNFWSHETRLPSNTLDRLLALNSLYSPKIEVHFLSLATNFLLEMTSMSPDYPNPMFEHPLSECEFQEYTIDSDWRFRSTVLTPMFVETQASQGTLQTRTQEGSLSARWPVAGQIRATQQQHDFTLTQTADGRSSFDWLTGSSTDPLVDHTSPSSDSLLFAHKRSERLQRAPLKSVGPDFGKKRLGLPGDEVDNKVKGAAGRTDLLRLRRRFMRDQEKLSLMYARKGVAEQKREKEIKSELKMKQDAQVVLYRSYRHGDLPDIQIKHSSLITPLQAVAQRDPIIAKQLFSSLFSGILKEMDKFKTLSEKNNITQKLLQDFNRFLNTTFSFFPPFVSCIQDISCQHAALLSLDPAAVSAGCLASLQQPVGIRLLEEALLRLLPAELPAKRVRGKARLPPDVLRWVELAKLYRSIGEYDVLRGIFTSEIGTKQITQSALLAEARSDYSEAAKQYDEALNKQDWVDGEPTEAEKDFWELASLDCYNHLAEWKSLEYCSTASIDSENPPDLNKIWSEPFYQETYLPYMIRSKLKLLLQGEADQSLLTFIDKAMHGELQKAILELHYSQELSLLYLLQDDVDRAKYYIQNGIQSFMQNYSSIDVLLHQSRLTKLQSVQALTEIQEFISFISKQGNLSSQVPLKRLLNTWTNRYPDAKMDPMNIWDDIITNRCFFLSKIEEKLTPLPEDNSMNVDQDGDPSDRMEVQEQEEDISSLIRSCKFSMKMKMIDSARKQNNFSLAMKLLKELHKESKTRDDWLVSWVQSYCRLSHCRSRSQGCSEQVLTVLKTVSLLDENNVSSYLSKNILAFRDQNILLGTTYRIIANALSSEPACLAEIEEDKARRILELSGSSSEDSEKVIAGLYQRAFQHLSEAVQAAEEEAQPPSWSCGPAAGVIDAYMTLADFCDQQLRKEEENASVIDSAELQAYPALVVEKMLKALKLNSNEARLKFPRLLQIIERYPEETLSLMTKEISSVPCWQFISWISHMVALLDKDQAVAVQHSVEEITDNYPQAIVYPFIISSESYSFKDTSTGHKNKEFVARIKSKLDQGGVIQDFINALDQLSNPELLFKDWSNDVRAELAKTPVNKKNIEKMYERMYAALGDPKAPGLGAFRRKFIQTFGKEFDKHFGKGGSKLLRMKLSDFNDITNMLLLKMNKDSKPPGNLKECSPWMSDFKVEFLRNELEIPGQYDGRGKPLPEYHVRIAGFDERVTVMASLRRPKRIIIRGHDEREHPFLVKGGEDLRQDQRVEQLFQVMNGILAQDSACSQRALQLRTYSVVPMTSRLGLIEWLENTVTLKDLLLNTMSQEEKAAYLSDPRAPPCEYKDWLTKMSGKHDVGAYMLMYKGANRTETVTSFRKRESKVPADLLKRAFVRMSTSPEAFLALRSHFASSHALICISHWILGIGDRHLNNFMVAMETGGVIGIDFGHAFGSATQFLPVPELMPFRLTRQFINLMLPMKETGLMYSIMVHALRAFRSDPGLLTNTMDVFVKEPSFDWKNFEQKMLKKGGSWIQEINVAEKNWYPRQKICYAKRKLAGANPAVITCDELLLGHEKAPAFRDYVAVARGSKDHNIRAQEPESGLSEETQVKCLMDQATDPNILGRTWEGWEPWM
T11 sequence (Q14258 whole entry): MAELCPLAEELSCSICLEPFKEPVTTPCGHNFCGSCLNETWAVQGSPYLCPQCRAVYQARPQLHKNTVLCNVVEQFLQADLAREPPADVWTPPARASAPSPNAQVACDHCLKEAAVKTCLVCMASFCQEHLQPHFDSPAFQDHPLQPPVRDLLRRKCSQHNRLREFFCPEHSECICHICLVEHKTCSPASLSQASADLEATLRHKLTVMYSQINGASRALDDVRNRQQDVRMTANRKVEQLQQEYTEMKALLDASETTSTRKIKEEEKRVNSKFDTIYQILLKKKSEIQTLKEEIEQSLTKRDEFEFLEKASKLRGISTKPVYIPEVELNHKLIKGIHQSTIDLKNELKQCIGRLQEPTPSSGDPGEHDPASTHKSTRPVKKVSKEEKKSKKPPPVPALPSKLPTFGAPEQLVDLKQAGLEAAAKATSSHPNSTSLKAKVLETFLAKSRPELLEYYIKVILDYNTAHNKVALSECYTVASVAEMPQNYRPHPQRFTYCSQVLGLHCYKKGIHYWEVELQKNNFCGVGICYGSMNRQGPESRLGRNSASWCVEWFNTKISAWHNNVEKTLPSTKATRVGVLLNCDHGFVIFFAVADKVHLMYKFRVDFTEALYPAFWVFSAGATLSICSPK

Compound	fold changes relative to vehicle control ([1]; protein TRIM28, HeLa)	fold changes relative to vehicle control ([3]; protein TPM3, HeLa)	fold changes relative to vehicle control ([13]; HeLa, protein PABPC1)	fold changes relative to vehicle control ([15]; protein ERP29, HeLa)	fold changes relative to vehicle control ([2]; HeLa, protein HNRNPF)	fold changes relative to vehicle control ([4]; captured protein MYH9, HeLa)	fold changes relative to vehicle control ([5]; protein PCBP1, HeLa)	fold changes relative to vehicle control ([6]; protein ZC3H8, HeLa)	fold changes relative to vehicle control ([7]; protein SPR, HeLa)	fold changes relative to vehicle control ([8]; protein SERPINH1, HeLa)	fold changes relative to vehicle control ([9]; HeLa, protein PRKDC)	fold changes relative to vehicle control ([10]; captured protein DNAJA3, HeLa)	fold changes relative to vehicle control ([11]; HeLa, protein TRIM25)	fold changes relative to vehicle control ([12]; captured protein GCDH, HeLa)	fold changes relative to vehicle control ([14]; protein SNRPB, HeLa)	further results
Nc1nc2c(c(=O)[nH]1)N(C=O)C(CNc1ccc(C(=O)N[C@@H](CCC(=O)O)C(=O)O)cc1)CN2 (stereo partly drawn) [LEU, leucovorin]	0.88	0.93	0.98	0.97												fold changes relative to vehicle control ([2]; HeLa, captured protein HNRNPF): 0.98; fold changes relative to vehicle control ([4]; HeLa, protein MYH9 (MYOSIN-9)): 0.97; fold changes relative to vehicle control ([5]; HeLa, protein PCBP1): 0.92; fold changes relative to vehicle control ([6]; HeLa, protein ZC3H8 (ZINC FINGER CCCH DOMAIN-CONTAINING PROTEIN 8)): 1.22; fold changes relative to vehicle control ([7]; HeLa, protein SPR): 0.92; fold changes relative to vehicle control ([8]; HeLa, protein SERPINH1): 0.99; fold changes relative to vehicle control ([9]; HeLa, protein PRKDC (ISOFORM 1 OF DNA-DEPENDENT PROTEIN KINASE CATALYTIC SUBUNIT)): 1.05; fold changes relative to vehicle control ([10]; protein DNAJA3, HeLa): 0.8; fold changes relative to vehicle control ([11]; HeLa, captured protein TRIM25): 0.98; fold changes relative to vehicle control ([12]; HeLa, captured protein GCDH): 0.96; fold changes relative to vehicle control ([14]; HeLa, captured protein SNRPB): 1.16
Nc1nc2[nH]cc(CCc3ccc(C(=O)N[C@@H](CCC(=O)O)C(=O)O)cc3)c2c(=O)[nH]1 [PTX, pemetrexed]																fold changes relative to vehicle control [1]: 0.97; fold changes relative to vehicle control [2]: 0.87; fold changes relative to vehicle control [3]: 0.89; fold changes relative to vehicle control [4]: 0.99; fold changes relative to vehicle control [5]: 0.88; fold changes relative to vehicle control [6]: 1.51; fold changes relative to vehicle control [7]: 0.86; fold changes relative to vehicle control [8]: 1.08; fold changes relative to vehicle control [9]: 1.06; fold changes relative to vehicle control [10]: 0.84; fold changes relative to vehicle control [11]: 0.87; fold changes relative to vehicle control [12]: 0.75; fold changes relative to vehicle control [13]: 0.96; fold changes relative to vehicle control [14]: 1.12; fold changes relative to vehicle control [15]: 0.96
CCCCCCOc1ccc(Cc2cnc(N)nc2N)cc1 [compound 1]	1.12	1.18	0.97	1.29	0.95	0.91	1.02	1.19	1.03	1.07	1.01	0.84	0.9	0.91	1.17	
CCCCCCOc1cccc(Cc2cnc(N)nc2N)c1 [compound 2]	1.44	2.05	1.19	1.77	0.88	1.23	1.08	0.96	1.21	1.61	0.89	1.16	1.07	0.95	1.46	
Nc1nc2cccc(-c3ccccc3)c2n1Cc1ccc(Cl)c(Cl)c1 [compound 3]	1.02	0.87	0.94	0.94	1.36	0.85	0.94	0.99	1.12	0.93	1.2	1.05	0.97	0.98	1.04	
